In PubChem BioAssay AID1963865 (Molecular Pharmacology Branch, DTP, NCI, 2024):

Test system: KRAS PDC multicell spheroid viability
Assay: Anticancer human tumor 825966-067-R-J1-PDC patient-derived colon carcinoma cell line growth inhibition [KRAS2]
Details: for IC50: curve of first compound; for viability, T/C: stronger effect = lower value
In short: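 KRAS-mutant tumor cells were grown as spheroids with HUVEC endothelial cells and human MSCs as stroma. Targeted agents were tested alone and with KRAS pathway inhibitors. Doses started at or near clinical Cmax, or 10 microM, descending half-log.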

[1] = second compound 0.1 µM, first compound 0.000316 µM
[2] = second compound 0.1 µM, first compound 0.001 µM
[3] = second compound 0.1 µM, first compound 0.00316 µM
[4] = second compound 0.1 µM, first compound 0.01 µM
[5] = second compound 0.1 µM, first compound 0.0316 µM
[6] = second compound 0.316 µM, first compound 0.000316 µM
[7] = second compound 0.316 µM, first compound 0.001 µM
[8] = second compound 0.316 µM, first compound 0.00316 µM
[9] = second compound 0.316 µM, first compound 0.01 µM
[10] = second compound 0.316 µM, first compound 0.0316 µM
[11] = second compound 1 µM, first compound 0.000316 µM
[12] = second compound 1 µM, first compound 0.001 µM
[13] = second compound 1 µM, first compound 0.00316 µM
[14] = second compound 1 µM, first compound 0.01 µM
[15] = second compound 1 µM, first compound 0.0316 µM
[16] = second compound 3.16 µM, first compound 0.000316 µM
[17] = second compound 3.16 µM, first compound 0.001 µM
[18] = second compound 3.16 µM, first compound 0.00316 µM
[19] = second compound 3.16 µM, first compound 0.01 µM
[20] = second compound 3.16 µM, first compound 0.0316 µM
[21] = second compound 10 µM, first compound 0.000316 µM
[22] = second compound 10 µM, first compound 0.001 µM
[23] = second compound 10 µM, first compound 0.00316 µM
[24] = second compound 10 µM, first compound 0.01 µM
[25] = second compound 10 µM, first compound 0.0316 µM
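Note: spheroids exposed to compounds for 7 days.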
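Throughout, for viability, T/C: 100% = DMSO vehicle control viability.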

CN(C)C/C=C/C(=O)Nc1cc2c(Nc3ccc(F)c(Cl)c3)ncnc2cc1O[C@H]1CCOC1 + COc1cc2nc(C)nc(NC(C)c3cc(N)cc(C(F)(F)F)c3)c2cc1OC1CCOC1
IC50 (second compound 0.1 µM): > 100 nM | IC50 (second compound 0.316 µM): > 100 nM | IC50 (second compound 1 µM): > 100 nM | IC50 (second compound 3.16 µM): > 100 nM | IC50 (second compound 10 µM): > 100 nM | viability, T/C [1]: 94% | viability, T/C [2]: 96.7% | viability, T/C [3]: 82.9% | viability, T/C [4]: 101% | viability, T/C [5]: 96.1% | viability, T/C (second compound 0.1 µM, first compound 0.1 µM): 91.8% | viability, T/C [6]: 103% | viability, T/C [7]: 107% | viability, T/C [8]: 95.9% | viability, T/C [9]: 98.9% | viability, T/C [10]: 105% | viability, T/C (second compound 0.316 µM, first compound 0.1 µM): 103% | viability, T/C [11]: 92.2% | viability, T/C [12]: 96% | viability, T/C [13]: 105% | viability, T/C [14]: 97.2% | viability, T/C [15]: 99.2% | viability, T/C (second compound 1 µM, first compound 0.1 µM): 83.5% | viability, T/C [16]: 133% | viability, T/C [17]: 119% | viability, T/C [18]: 107% | viability, T/C [19]: 115% | viability, T/C [20]: 106% | viability, T/C (second compound 3.16 µM, first compound 0.1 µM): 105% | viability, T/C [21]: 108% | viability, T/C [22]: 103% | viability, T/C [23]: 116% | viability, T/C [24]: 106% | viability, T/C [25]: 105% | viability, T/C (second compound 10 µM, first compound 0.1 µM): 95.2%

CC(=O)Nc1cccc(-n2c(=O)n(C3CC3)c(=O)c3c(Nc4ccc(I)cc4F)n(C)c(=O)c(C)c32)c1 + CC1OCC2(CCN(c3cnc(Sc4ccnc(N)c4Cl)c(N)n3)CC2)C1N
IC50 (second compound 0.1 µM): > 31.6 nM | IC50 (second compound 0.316 µM): > 31.6 nM | IC50 (second compound 1 µM): 4.52 nM | IC50 (second compound 3.16 µM): 0.827 nM | IC50 (second compound 10 µM): 0.12 nM | viability, T/C (second compound 0.1 µM, first compound 0.0001 µM): 93.2% | viability, T/C [1]: 98.9% | viability, T/C [2]: 125% | viability, T/C [3]: 103% | viability, T/C [4]: 93.5% | viability, T/C [5]: 56.5% | viability, T/C (second compound 0.316 µM, first compound 0.0001 µM): 96.3% | viability, T/C [6]: 91.8% | viability, T/C [7]: 110% | viability, T/C [8]: 116% | viability, T/C [9]: 64.8% | viability, T/C [10]: 49.6% | viability, T/C (second compound 1 µM, first compound 0.0001 µM): 80.8% | viability, T/C [11]: 128% | viability, T/C [12]: 105% | viability, T/C [13]: 61.2% | viability, T/C [14]: 27.2% | viability, T/C [15]: 21.5% | viability, T/C (second compound 3.16 µM, first compound 0.0001 µM): 97.1% | viability, T/C [16]: 108% | viability, T/C [17]: 39.6% | viability, T/C [18]: 28.2% | viability, T/C [19]: 18.4% | viability, T/C [20]: 15.8% | viability, T/C (second compound 10 µM, first compound 0.0001 µM): 57.4% | viability, T/C [21]: 9.62% | viability, T/C [22]: 7.27% | viability, T/C [23]: 6.92% | viability, T/C [24]: 5.11% | viability, T/C [25]: 14.4%
